Measured values published in patent publication US9181234B2, “Antibacterial compounds” (priority 2010, dated 2015).
In brackets after ≈: the same amount, converted by molar mass.

Assays:
[1] = test system: Streptococcus pyogenes (Isolate ID ATCC 51339); assay: Antibacterial activity, MIC, S. pyogenes; type: cell-based; conditions: Streptococcus pyogenes, ATCC51339, Gram positive strain; broth microdilution or agar dilution
How it was run: (§1)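 MICs were determined by broth microdilution or agar dilution following CLSI guidelines (M7-A7), testing susceptibility in liquid or on solid media.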

physchem = conditions: pH 7.4, aqueous buffer, kinetic from dmso stock
How it was run: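 DMSO doubling dilutions were diluted twenty-fold into 100 mM citrate (pH 4), PBS (pH 7.4) or carbonate-bicarbonate (pH 9). After 24 h equilibration at room temperature, absorbance was read at 620 nm. The reported value is the highest concentration without measurable precipitate.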

[2] = test system: Haemophilus influenzae (Isolate ID ATCC 49247); assay: Antibacterial activity, MIC, H. influenzae; type: cell-based; conditions: Haemophilus influenzae, ATCC49247; Gram negative strain; broth microdilution or agar dilution
How it was run: as §1

[3] = test system: Staphylococcus aureus (Isolate ID ATCC 29213); assay: Antibacterial activity, MIC, S. aureus; type: cell-based; conditions: Staphylococcus aureus, ATCC29213, Gram positive strain; broth microdilution or agar dilution
How it was run: as §1

[4] = test system: Enterococcus faecalis (Isolate ID ATCC 29212); assay: Antibacterial activity, MIC, E. faecalis; type: cell-based; conditions: Enterococcus faecalis, ATCC29212; Gram positive strain; broth microdilution or agar dilution
Description: Bacterial Assay: Determination of Antibacterial Activity
Compounds of the invention were tested for antimicrobial activity by susceptibility testing in liquid or on solid media. MICs for compounds against each strain were determined by the broth microdilution or agar dilution method according to the guidelines of the Clinical Laboratories and Standards Institute, formerly the National Committee for Clinical Laboratory Standards (Clinical Laboratories and Standards Institute. Methods for Dilution Antimicrobial Susceptibility Tests for Bacteria That Grow Aerobically; Approved Standard—Seventh Edition. Document M7-A7. CLSI, Wayne, Pa., 2006; Clinical Laboratories and Standards Institute. The gram positive bacterial strains tested include S. aureus (Staphylococcus aureus (Isolate ID ATCC 29213)), E. faecalis (Enterococcus faecalis (Isolate ID ATCC 29212)) and S. pyogenes (Streptococcus pyogenes (Isolate ID ATCC 51339)). The gram negative bacterial strains tested include H. influenzae (Haemophilus influenzae (Isolate ID ATCC 49247))

SMILES | MIC [1] [mg/L] | solubility at 24 h (physchem; Solubility (pH 7.4)) [mg/mL] | solubility at 24 h (physchem; Solubility Range) [mg/mL] | MIC [2] [mg/L] | MIC [3] [mg/L] | MIC [4] [mg/L] | solubility at 24 h (physchem; Max Solubility) [mg/mL] | solubility at 24 h (physchem; Solubility Range (maximum solubility)) [mg/mL]
CCNC(=O)Nc1nc2cc(-c3cnc(N4CCCCC4(C)C(=O)O)nc3)cc(-c3ccccn3)c2s1 (centres unmarked) [Compound 2] | 0.25 to 1 (≈ 0.483 to 1.93 µM) | 0.00625 (≈ 12.1 µM) | < 0.0125 | 1 to 16 (≈ 1.93 to 30.9 µM) | 0.25 to 1 (≈ 0.483 to 1.93 µM) | 0.25 to 1 (≈ 0.483 to 1.93 µM) | – | –
CCNC(=O)Nc1nc2cc(-c3cnc(N4CCC(C)(C(=O)O)CC4)nc3)cc(-c3ccc(C#N)cn3)c2s1 [Compound 14] | ≤ 0.25 | ≥ 0.8 | > 0.8 | 0.25 to 1 (≈ 0.461 to 1.84 µM) | ≤ 0.25 | ≤ 0.25 | – | –
CCNC(=O)Nc1nc2cc(-c3cnc(N4CCC(C)(C(=O)O)CC4)nc3)cc(-c3cc(OC)ncn3)c2s1 [Compound 15] | ≤ 0.25 | ≥ 0.8 | > 0.8 | 0.25 to 1 (≈ 0.456 to 1.82 µM) | ≤ 0.25 | ≤ 0.25 | – | –
CCNC(=O)Nc1nc2cc(-c3cnc(N4CCC(C)(C(=O)O)CC4)nc3)cc(-c3cc(C#N)ccn3)c2s1 [Compound 16] | ≤ 0.25 | 0.00625 (≈ 11.5 µM) | < 0.0125 | 1 to 16 (≈ 1.84 to 29.5 µM) | ≤ 0.25 | ≤ 0.25 | – | –
CCNC(=O)Nc1nc2cc(-c3cnc(N4CCC(C)(C(=O)O)CC4)nc3)cc(-c3cc(OC)ccn3)c2s1 [Compound 17] | ≤ 0.25 | ≥ 0.8 | > 0.8 | 0.25 to 1 (≈ 0.457 to 1.83 µM) | ≤ 0.25 | ≤ 0.25 | – | –
CCNC(=O)Nc1nc2cc(-c3cnc(N4CCC(C)(C(=O)O)CC4)nc3)cc(-c3ncccc3F)c2s1 [Compound 18] | ≤ 0.25 | ≥ 0.8 | > 0.8 | 1 to 16 (≈ 1.87 to 29.9 µM) | ≤ 0.25 | ≤ 0.25 | ≥ 0.8 | > 0.8
CCNC(=O)Nc1nc2cc(-c3cnc(N4CCC(C)(C(=O)O)CC4)nc3)cc(-c3ncco3)c2s1 [Compound 19] | ≤ 0.25 | ≥ 0.8 | > 0.8 | 1 to 16 (≈ 1.97 to 31.5 µM) | 0.25 to 1 (≈ 0.493 to 1.97 µM) | ≤ 0.25 | – | –
CCNC(=O)Nc1nc2cc(-c3cnc(N4CCC(C)(C(=O)O)CC4)nc3)cc(-c3cncs3)c2s1 [Compound 20] | ≤ 0.25 | ≥ 0.8 | > 0.8 | 1 to 16 (≈ 1.91 to 30.6 µM) | 0.25 to 1 (≈ 0.477 to 1.91 µM) | ≤ 0.25 | – | –
CCCCC#Cc1cc(-c2cnc(N3CCC(C)(C(=O)O)CC3)nc2)cc2nc(NC(=O)NCC)sc12 [Compound 22] | 1 to 16 (≈ 1.92 to 30.7 µM) | ≥ 0.8 | > 0.8 | > 16 | 0.25 to 1 (≈ 0.48 to 1.92 µM) | ≤ 0.25 | – | –
CCNC(=O)Nc1nc2cc(-c3cnc(N4CCC(C)(C(=O)O)CC4)nc3)cc(-c3csc(OC)n3)c2s1 [Compound 23, 1-[5-[2-(ethylcarbamoylamino)-7-(2-methoxythiazol-4-yl)-1,3-benzothiazol-5-yl]pyrimidin-2-yl]-4-methyl-piperidine-4-carboxylic acid] | ≤ 0.25 | ≥ 0.8 | > 0.8 | 1 to 16 (≈ 1.81 to 28.9 µM) | ≤ 0.25 | ≤ 0.25 | – | –
CCNC(=O)Nc1nc2cc(-c3cnc(N4CCC(C)(C(=O)O)CC4)nc3)cc(-c3cnn(C)c3)c2s1 [Compound 24] | 0.25 to 1 (≈ 0.48 to 1.92 µM) | ≥ 0.8 | > 0.8 | 1 to 16 (≈ 1.92 to 30.7 µM) | 1 to 16 (≈ 1.92 to 30.7 µM) | ≤ 0.25 | – | –
CCNC(=O)Nc1nc2cc(-c3cnc(N4CCC(C)(C(=O)O)CC4)nc3)cc(-c3cn[nH]c3)c2s1 [Compound 25] | 0.25 to 1 (≈ 0.493 to 1.97 µM) | ≥ 0.8 | > 0.8 | > 16 | > 16 | 0.25 to 1 (≈ 0.493 to 1.97 µM) | – | –
CCNC(=O)Nc1nc2cc(-c3cnc(N4CCC(C)(C(=O)O)CC4)nc3)cc(O)c2s1 [Compound 26, 1-[5-[2-(ethylcarbamoylamino)-7-hydroxy-1,3-benzothiazol-5-yl]pyrimidin-2-yl]-4-methyl-piperidine-4-carboxylic acid] | 1 to 16 (≈ 2.19 to 35 µM) | ≥ 0.8 | > 0.8 | > 16 | > 16 | 1 to 16 (≈ 2.19 to 35 µM) | – | –
CCNC(=O)Nc1nc2cc(-c3cnc(N4CCC(C)(C(=O)O)CC4)nc3)cc(-c3nc(CO)cs3)c2s1 [Compound 27] | ≤ 0.25 | ≥ 0.8 | > 0.8 | 1 to 16 (≈ 1.81 to 28.9 µM) | 1 to 16 (≈ 1.81 to 28.9 µM) | ≤ 0.25 | – | –

Now from value to compound:

MIC [1] [mg/L] | solubility at 24 h (physchem; Solubility (pH 7.4)) [mg/mL] | solubility at 24 h (physchem; Solubility Range) [mg/mL] | MIC [2] [mg/L] | MIC [3] [mg/L] | MIC [4] [mg/L] | solubility at 24 h (physchem; Max Solubility) [mg/mL] | solubility at 24 h (physchem; Solubility Range (maximum solubility)) [mg/mL] | SMILES
≤ 0.25 | 0.4 (≈ 750 µM) | 0.4 to 0.8 (≈ 750 to 1500 µM) | 1 to 16 (≈ 1.87 to 30 µM) | 1 to 16 (≈ 1.87 to 30 µM) | 0.25 to 1 (≈ 0.469 to 1.87 µM) | – | – | CCNC(=O)Nc1nc2cc(-c3cnc(N4CCC(O)C(C)(C(=O)O)C4)nc3)cc(-c3ccccn3)c2s1 (centres unmarked) [Compound 3]
≤ 0.25 | ≥ 0.8 | > 0.8 | > 16 | ≤ 0.25 | ≤ 0.25 | – | – | CCNC(=O)Nc1nc2cc(-c3cnc(N4CCC(C)(C(=O)O)CC4)c(C)c3)cc(-c3ccccn3)c2s1 [Compound 5]
≤ 0.25 | 0.4 (≈ 752 µM) | 0.4 to 0.8 (≈ 752 to 1500 µM) | 1 to 16 (≈ 1.88 to 30.1 µM) | ≤ 0.25 | ≤ 0.25 | – | – | CCNC(=O)Nc1nc2cc(-c3cnc(N4CCC(C)(C(=O)O)CC4)nc3)cc(-c3cc(C)ccn3)c2s1 [Compound 6, 1-[5-[2-(ethylcarbamoylamino)-7-(4-methyl-2-pyridyl)-1,3-benzothiazol-5-yl]pyrimidin-2-yl]-4-methyl-piperidine-4-carboxylic acid]
≤ 0.25 | 0.4 (≈ 692 µM) | 0.4 to 0.8 (≈ 692 to 1380 µM) | 0.25 to 1 (≈ 0.433 to 1.73 µM) | ≤ 0.25 | ≤ 0.25 | – | – | CCNC(=O)Nc1nc2cc(-c3cnc(N4CCC(C)(C(=O)O)CC4)nc3)cc(-c3ccc(OC)c(OC)n3)c2s1 [Compound 7]
≤ 0.25 | 0.1 (≈ 182 µM) | 0.0125 to 0.4 (≈ 22.8 to 729 µM) | 1 to 16 (≈ 1.82 to 29.2 µM) | ≤ 0.25 | ≤ 0.25 | – | – | CCNC(=O)Nc1nc2cc(-c3cnc(N4CCC(C)(C(=O)O)CC4)nc3)cc(-c3nccc(OC)n3)c2s1 [Compound 8]
≤ 0.25 | ≥ 0.8 | > 0.8 | 1 to 16 (≈ 1.88 to 30.1 µM) | ≤ 0.25 | ≤ 0.25 | – | – | CCNC(=O)Nc1nc2cc(-c3cnc(N4CCC(C)(C(=O)O)C(C)C4)nc3)cc(-c3ccccn3)c2s1 (centres unmarked) [Compound 9]
≤ 0.25 | 0.1 (≈ 187 µM) | 0.0125 to 0.4 (≈ 23.3 to 747 µM) | 1 to 16 (≈ 1.87 to 29.9 µM) | ≤ 0.25 | ≤ 0.25 | – | – | CCNC(=O)Nc1nc2cc(-c3cnc(N4CCC(C)(C(=O)O)CC4)nc3)cc(-c3cc(F)ccn3)c2s1 [Compound 10]
≤ 0.25 | ≥ 0.8 | > 0.8 | 1 to 16 (≈ 1.93 to 30.9 µM) | ≤ 0.25 | ≤ 0.25 | – | – | CCNC(=O)Nc1nc2cc(-c3cnc(N4CCC(C)(C(=O)O)CC4)nc3)cc(-c3cnccn3)c2s1 [Compound 11]
≤ 0.25 | ≥ 0.8 | > 0.8 | 1 to 16 (≈ 1.88 to 30 µM) | ≤ 0.25 | ≤ 0.25 | – | – | CCNC(=O)Nc1nc2cc(-c3cnc(N4CCC(C)(C(=O)O)CC4)nc3)cc(-c3nccc(C)n3)c2s1 [Compound 12]
≤ 0.25 | 0.1 (≈ 184 µM) | 0.0125 to 0.4 (≈ 23 to 737 µM) | 1 to 16 (≈ 1.84 to 29.5 µM) | ≤ 0.25 | ≤ 0.25 | – | – | CCNC(=O)Nc1nc2cc(-c3cnc(N4CCC(C)(C(=O)O)CC4)nc3)cc(-c3ncccc3C#N)c2s1 [Compound 13]
